Target: Poly [ADP-ribose] polymerase 1 (Homo sapiens, UniProt P09874)
Experiment: Inhibition of human recombinant PARP1 by Trevigen colorimetric assay

Sequence of Poly [ADP-ribose] polymerase 1 (P09874 whole entry): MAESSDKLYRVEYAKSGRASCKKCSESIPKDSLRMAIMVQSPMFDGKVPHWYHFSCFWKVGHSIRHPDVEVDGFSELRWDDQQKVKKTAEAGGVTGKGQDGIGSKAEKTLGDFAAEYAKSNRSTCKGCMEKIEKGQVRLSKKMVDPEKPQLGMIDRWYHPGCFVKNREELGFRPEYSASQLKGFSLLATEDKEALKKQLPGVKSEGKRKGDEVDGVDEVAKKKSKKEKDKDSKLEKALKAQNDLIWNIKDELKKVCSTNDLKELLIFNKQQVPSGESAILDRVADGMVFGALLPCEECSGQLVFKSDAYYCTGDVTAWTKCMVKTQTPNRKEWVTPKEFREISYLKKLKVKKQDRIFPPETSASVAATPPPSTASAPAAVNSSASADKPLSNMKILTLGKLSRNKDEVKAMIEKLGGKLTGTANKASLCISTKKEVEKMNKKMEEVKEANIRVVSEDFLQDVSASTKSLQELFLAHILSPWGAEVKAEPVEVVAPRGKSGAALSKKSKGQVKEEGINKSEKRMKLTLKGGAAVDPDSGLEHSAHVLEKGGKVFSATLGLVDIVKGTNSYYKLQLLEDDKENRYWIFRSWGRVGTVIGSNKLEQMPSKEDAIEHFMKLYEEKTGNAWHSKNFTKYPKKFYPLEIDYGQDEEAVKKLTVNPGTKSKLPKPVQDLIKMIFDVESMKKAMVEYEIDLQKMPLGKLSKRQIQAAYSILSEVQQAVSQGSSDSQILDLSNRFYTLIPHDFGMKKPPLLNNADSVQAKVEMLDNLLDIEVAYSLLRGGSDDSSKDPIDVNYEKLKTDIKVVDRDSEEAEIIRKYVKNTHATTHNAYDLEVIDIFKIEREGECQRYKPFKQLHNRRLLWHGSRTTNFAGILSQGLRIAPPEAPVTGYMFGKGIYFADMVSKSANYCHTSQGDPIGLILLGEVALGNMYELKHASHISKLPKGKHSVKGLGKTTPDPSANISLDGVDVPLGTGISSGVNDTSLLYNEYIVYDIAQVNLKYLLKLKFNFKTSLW

IC50: 1800 nM
Compound: Nc1cccc2c(=O)[nH]ccc12
